Source: US9452157B2, “Pharmaceutical compositions comprising rifaximin and amino acids, preparation methods and use thereof” (ALFA WASSERMANN SPA, priority 2012, dated 2016)

How the values were obtained:
[1] = format: physicochemical
Procedure: A rifaximin amount corresponding to 200 mg was dissolved in 10 ml of a solution formed by ethanol/water 1:4 (v/v), left for two days under stirring at room temperature.
Rifaximin solubility was determined by wavelength spectrophotometry at wavelength 276 nm with a rifaximin calibration curve.

[2] = WO 2005/044823; cited from earlier work

Rifaximin solubility [1] | solubility of rifaximin [1] | Structure (SMILES) | water solubility [2]
48 µg/mL | 48 µg/mL | CO[C@H]1/C=C/O[C@@]2(C)Oc3c(C)c(O)c4c(O)c(c5c(nc6cc(C)ccn65)c4c3C2=O)NC(=O)/C(C)=C\C=C\[C@H](C)[C@H](O)[C@@H](C)[C@@H](O)[C@@H](C)[C@H](OC(C)=O)[C@@H]1C [Rifaximin] | –
– | – | CO[C@H]1/C=C/O[C@@]2(C)Oc3c(C)c(O)c4c(O)c(c5c(nc6cc(C)ccn65)c4c3C2=O)NC(=O)/C(C)=C\C=C\[C@H](C)[C@H](O)[C@@H](C)[C@@H](O)[C@@H](C)[C@H](OC(C)=O)[C@@H]1C [rifaximin polymorph α] | substantially insoluble
